# Data taken from patent publication US20080234263A1, “Quinazoline Derivatives” (priority 2003, published 2008).
# How the values were obtained:
# EGFR tyrosine kinase = target: T1, EGFR tyrosine kinase (Homo sapiens, UniProt P00533); experiment: Protein tyrosine kinase phosphorylation assay, Test (a); type: biochemical; settings: recombinant intracellular fragment of EGFR, ATP at Km concentration; read-out: IC50 (nM) Test (a) (Inhibition of EGFR tyrosine kinase protein phosphorylation)
# T1 construct: Recombinant intracellular fragments of EGFR, erbB2 and erbB4; made in house; host or cells: baculovirus/Sf21 insect cells (cleared lysate used)
# T1 sequence (P00533 669-1210 limits assumed): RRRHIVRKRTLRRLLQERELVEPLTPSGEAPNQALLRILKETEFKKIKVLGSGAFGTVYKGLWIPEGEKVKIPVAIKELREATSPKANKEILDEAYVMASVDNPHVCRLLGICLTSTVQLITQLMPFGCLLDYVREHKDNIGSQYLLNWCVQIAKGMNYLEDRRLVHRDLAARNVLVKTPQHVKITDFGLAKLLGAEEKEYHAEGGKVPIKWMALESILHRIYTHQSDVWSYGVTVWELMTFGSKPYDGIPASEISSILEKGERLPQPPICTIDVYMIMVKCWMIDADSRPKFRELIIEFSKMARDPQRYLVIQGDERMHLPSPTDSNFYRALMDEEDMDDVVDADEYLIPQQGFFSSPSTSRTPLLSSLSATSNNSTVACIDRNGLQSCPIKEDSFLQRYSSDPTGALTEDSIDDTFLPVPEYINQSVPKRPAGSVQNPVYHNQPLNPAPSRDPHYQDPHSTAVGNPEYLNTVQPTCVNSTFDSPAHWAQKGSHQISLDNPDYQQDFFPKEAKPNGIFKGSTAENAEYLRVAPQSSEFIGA
# Protocol: Recombinant intracellular fragments of EGFR, erbB2 and erbB4 (accession numbers X00588, X03363 and L07868 respectively) were cloned and expressed in the baculovirus/Sf21 system. Lysates were prepared from these cells by treatment with ice-cold lysis buffer (20 mM N-2-hydroxyethylpiperizine-N′-2-ethanesulfonic acid (HEPES) pH7.5, 150 mM NaCl, 10% glycerol, 1% Triton X-100, 1.5 mM MgCl2, 1 mM ethylene glycol-bis(β-aminoethyl ether) N′,N′,N′,N′-tetraacetic acid (EGTA), plus protease inhibitors and then cleared by centrifugation.
# Specifically, Maxisorb™ 96-well immunoplates were coated with synthetic peptide (0.2 μg of peptide in a 100 μl phosphate buffered saline (PBS) solution and incubated at 4° C. overnight).
# The immobilised phospho-peptide product of the reaction was detected by immunological methods. Firstly, plates were incubated for 90 minutes at room temperature with anti-phosphotyrosine primary antibodies that were raised in the mouse (4G10 from Upstate Biotechnology). Following extensive washing, plates were treated with Horseradish Peroxidase (HRP) conjugated sheep anti-mouse secondary antibody (NXA931 from Amersham) for 60 minutes at room temperature.
# Kinase inhibition for a given compound was expressed as an IC50 value. […] The range of phosphorylation was calculated from the positive (vehicle plus ATP) and negative (vehicle minus ATP) control values.
# [1] = test system: KB cells (human naso-pharangeal carcinoma cells); experiment: EGFR driven KB cell proliferation assay, Test (b); type: cell-based; settings: 96 h, EGF 1 ng/ml, incubation for 4 days, MTT
# Protocol: This assay measures the ability of a test compound to inhibit the proliferation of KB cells (human naso-pharangeal carcinoma obtained from the American Type Culture Collection (ATCC).
# Following adhesion to the plate, the cells are treated with or without EGF (final concentration of 1 ng/ml) and with or without compound at a range of concentrations in dimethylsulfoxide (DMSO) (0.1% final) before incubation for 4 days. Following the incubation period, cell numbers were determined by addition of 50 μl of 3-(4,5-Dimethylthiazol-2-yl)-2,5-diphenyltetrazolium bromide ([…]) (stock 5 mg/ml) for 2 hours. MTT solution was then tipped off, the plate gently tapped dry and the cells dissolved upon the addition of 100 μl of DMSO.
# Absorbance of the solubilised cells was read at 540 nm using a Molecular Devices ThermoMax microplate reader. Inhibition of proliferation was expressed as an IC50 value. […] The range of proliferation was calculated from the positive (vehicle plus EGF) and negative (vehicle minus EGF) control values.
SMILES,IC50 (EGFR tyrosine kinase) [nM],IC50 [1] [nM]
"COc1cc2ncnc(Nc3cccc(Cl)c3F)c2cc1CN1CSC[C@H]1C(N)=O [Example 24, (4R)-3-({4-[(3-Chloro-2-fluorophenyl)amino]-7-methoxyquinazolin-6-yl}methyl)-1,3-thiazolidine-4-carboxamide]",20,50
"COCCN1CCN(Cc2cc3c(Nc4cccc(Cl)c4F)ncnc3cc2OC)C(C(N)=O)C1 (stereo not drawn) [Example 37, 1-({4-[(3-Chloro-2-fluorophenyl)amino]-7-methoxyquinazolin-6-yl}methyl)-4-(2-methoxyethyl)piperazine-2-carboxamide]",67,160
"COc1cc2ncnc(Nc3ccc(F)c(Cl)c3)c2cc1CN1CCC[C@@H]1C(=O)NCC#N [Example 20, 1-({4-[(3-Chloro-4-fluorophenyl)amino]-7-methoxyquinazolin-6-yl}methyl)-N-(cyanomethyl)-D-prolinamide]",64,143
